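Grown in 96-well plates, cells were treated for 48 hours with each compound at five concentrations. Insufficient inhibition: endpoint recorded as highest concentration tested. Abbreviation: GI50, concentration required for 50% inhibition of growth.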 Activity calls are given as the source filed them. No stated cut-off is given here; in the data, active = GI50 up to about 1.1 µM and inactive = higher.
Tests used:
Experiment in all cases: DTP human tumour cell line panel, 48 h
[1] = system: DU-145
[2] = system: LOX IMVI
[3] = system: MDA-MB-231
[4] = system: HCT-116
[5] = system: HOP-92
[6] = system: BT-549
[7] = system: SNB-19
[8] = system: NCI-H460
[9] = system: RPMI-8226
[10] = system: SF-268
[11] = system: NCI-H23
[12] = system: UACC-257
[13] = system: MDA-MB-435
[14] = system: SW-620
[15] = system: U-251
[16] = system: MOLT-4
[17] = system: 786-0
[18] = system: NCI-H226
[19] = system: PC-3
[20] = system: IGROV-1

Measured: GI50

O=C(SC1=NCCN1)c1cccc2ccccc12
inactive: [1] 67.5 µM | [2] > 100 µM | [3] > 100 µM | [4] 41 µM | [5] 42.1 µM | [6] 64.7 µM | [7] > 100 µM | [8] 62.5 µM | [9] 27.8 µM | [10] > 100 µM | [11] 63.5 µM | [12] 28.9 µM | [13] 53.5 µM | [14] 33.8 µM | [15] 45.5 µM | [16] 16.9 µM | [17] 67.5 µM | [18] 32.3 µM | [19] 42 µM | [20] 63.7 µM

Cc1cn(CCCCOC(=O)NC(CCCNC(N)=O)C(=O)O)c(=O)[nH]c1=O (stereo not given)
inactive: [1] > 100 µM | [2] > 100 µM | [3] > 100 µM | [4] > 100 µM | [5] > 100 µM | [6] > 100 µM | [7] > 100 µM | [8] > 100 µM | [9] > 100 µM | [10] > 100 µM | [11] > 100 µM | [12] > 100 µM | [13] > 100 µM | [14] > 100 µM | [15] > 100 µM | [16] > 100 µM | [17] > 100 µM | [18] > 100 µM | [19] > 100 µM | [20] > 100 µM

O=C(O)COc1cc(-c2ccccc2)nc2ccc(F)cc12
inactive: [1] > 100 µM | [2] > 100 µM | [3] > 100 µM | [4] > 100 µM | [5] > 100 µM | [6] > 100 µM | [7] > 100 µM | [8] > 100 µM | [9] > 100 µM | [10] > 100 µM | [11] > 100 µM | [12] > 100 µM | [13] > 100 µM | [14] > 100 µM | [15] > 100 µM | [16] > 100 µM | [17] > 100 µM | [18] > 100 µM | [19] > 100 µM | [20] > 100 µM

C[N+](C)(C)CC(=O)N/N=C(\C(=O)NC1=C(Cl)C(=O)c2ccccc2C1=O)C(C#N)c1nc(-c2ccc([N+](=O)[O-])cc2)cs1 (stereo not given)
inactive: [1] 6.08 µM | [2] 1.69 µM | [3] 10.3 µM | [4] 5.78 µM | [5] 13 µM | [6] 3.77 µM | [7] 12.9 µM | [8] 4.31 µM | [9] 6.53 µM | [10] 12.3 µM | [11] 2.51 µM | [12] 3.18 µM | [13] 1.87 µM | [14] 8.15 µM | [15] 6.97 µM | [16] 13.4 µM | [17] 8.63 µM | [18] 11.4 µM | [19] 6.89 µM | [20] 6.71 µM

O=C(O)CP(=O)(O)O
inactive: [1] > 100 µM | [2] > 100 µM | [3] > 100 µM | [4] > 100 µM | [5] > 100 µM | [6] > 100 µM | [7] > 100 µM | [8] > 100 µM | [9] > 100 µM | [10] > 100 µM | [11] > 100 µM | [12] > 100 µM | [13] > 100 µM | [14] > 100 µM | [15] > 100 µM | [16] > 100 µM | [17] > 100 µM | [18] > 100 µM | [19] > 100 µM | [20] > 100 µM

— ChEMBL document CHEMBL1201862, “PubChem BioAssay data set” (2004)
